According to patent US20220047569A1, “METHOD AND COMPOUND FOR USE, IN TREATING AND/OR PREVENTING NETOSIS” (Jubilant EpiPad LLC, priority 2020, published 2022):
pIC50: −log10 of the molar value.

System: Histone H3 Citrullination in Neutrophils
Assay: Citrullination ELISA (Citrullinated Histone H3) in calcium ionophore stimulated neutrophils
Assay type: cell-based
Conditions: Neutrophil; human neutrophils, 25 μM calcium ionophore, CitH3 ELISA
Procedure, shortened: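 Freshly isolated human donor neutrophils in RPMI with 2% BSA and 1 mM CaCl2 were pre-incubated 30 min with compound (10, 1, 0.1 μM), then stimulated 30 min with 25 μM calcium ionophore. After S7 nuclease digestion, lysates were assayed by citrullinated histone H3 ELISA (450 nm); IC50 from sigmoidal fits.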

Compound | pIC50
Cc1c(-c2cc3ccccc3n2Cc2ccc(F)cc2)nc2cc(C(=S)N3CCC[C@@H](N)C3)ccn12 [Compound 45, (R)-(3-aminopiperidin-1-yl)(2-(1-(4-fluorobenzyl)-1H-indol-2-yl)-3-methylimidazo[1,2-a]pyridin-7-yl)methanethione] | > 7.00
Cc1c(-c2cc3ccccc3n2Cc2ccoc2)nc2cc(C(=O)N3CCC[C@@H](N)C3)ccn12 [Compound 37, (R)-(3-aminopiperidin-1-yl)(2-(1-(furan-3-ylmethyl)-1H-indol-2-yl)-3-methylimidazo[1,2-a]pyridin-7-yl)methanone] | > 7.00
Cc1c(-c2cc3ccccc3n2Cc2ccc(F)cn2)nc2cc(C(=O)N3CCC[C@@H](N)C3)ccn12 [Compound 79, (R)-(3-aminopiperidin-1-yl)(2-(1-((5-fluoropyridin-2-yl)methyl)-1H-indol-2-yl)-3-methylimidazo[1,2-a]pyridin-7-yl)methanone] | < 6.00
N[C@@H]1CCCN(C(=O)c2cc3c4c(c2)nc(-c2cc5ccccc5n2Cc2cccnc2)n4CCN3)C1 [Compound 152, (R)-(3-aminopiperidin-1-yl)(2-(1-(pyridin-3-ylmethyl)-1H-indol-2-yl)-5,6-dihydro-4H-imidazo[1,5,4-de]quinoxalin-8-yl)methanone] | > 7.00
COCCn1c(-c2nc3cc(C(=O)N4CCC[C@@H](N)C4)cc4c3n2CCO4)cc2ccc(OC)cc21 [Compound 107, (R)-(3-aminopiperidin-1-yl)(2-(6-methoxy-1-(2-methoxyethyl)-1H-indol-2-yl)-3,4-dihydro-5-oxa-1,2a-diazaacenaphthylen-7-yl)methanone] | 6.00 to 7.00
N[C@@H]1CCCN(C(=O)c2cc3c4c(c2)nc(-c2cc5ccc(F)cc5n2CC2CC2)n4CCN3)C1 [Compound 151, (R)-(3-aminopiperidin-1-yl)(2-(1-(cyclopropylmethyl)-6-fluoro-1H-indol-2-yl)-5,6-dihydro-4H-imidazo[1,5,4-de]quinoxalin-8-yl)methanone] | > 7.00

The remaining lines, values ahead:

pIC50 | Compound
> 7.00 | N[C@@H]1CCCN(C(=O)c2cc3c4c(c2)nc(-c2cc5ccccc5n2Cc2ncccc2F)n4CCO3)C1 [Compound 112, (R)-(3-aminopiperidin-1-yl)(2-(1-((3-fluoropyridin-2-yl)methyl)-1H-indol-2-yl)-3,4-dihydro-5-oxa-1,2a-diazaacenaphthylen-7-yl)methanone]
> 7.00 | N[C@@H]1CCCN(C(=O)c2cc3c4c(c2)nc(-c2cc5ccccc5n2Cc2ccccc2F)n4CCO3)C1 [Compound 100, (R)-(3-aminopiperidin-1-yl)(2-(1-(2-fluorobenzyl)-1H-indol-2-yl)-3,4-dihydro-5-oxa-1,2a-diazaacenaphthylen-7-yl)methanone]
> 7.00 | N[C@@H]1CCCN(C(=O)c2cc3c4c(c2)nc(-c2cc5cc(F)ccc5n2CC2CC2)n4CCO3)C1 [Compound 95, (R)-(3-aminopiperidin-1-yl)(2-(1-(cyclopropylmethyl)-5-fluoro-1H-indol-2-yl)-3,4-dihydro-5-oxa-1,2a-diazaacenaphthylen-7-yl)methanone]
> 7.00 | N[C@@H]1CCCN(C(=O)c2cc3c4c(c2)nc(-c2cc5ccccc5n2Cc2cccnc2)n4CCO3)C1 [Compound 102, (R)-(3-aminopiperidin-1-yl)(2-(1-(pyridin-3-ylmethyl)-1H-indol-2-yl)-3,4-dihydro-5-oxa-1,2a-diazaacenaphthylen-7-yl)methanone]
> 7.00 | N[C@@H]1CCCN(C(=O)c2cc3c4c(c2)nc(-c2cc5ccccc5n2Cc2ncccn2)n4CCO3)C1 [Compound 113, (R)-(3-aminopiperidin-1-yl)(2-(1-(pyrimidin-2-ylmethyl)-1H-indol-2-yl)-3,4-dihydro-5-oxa-1,2a-diazaacenaphthylen-7-yl)methanone]
> 7.00 | CCn1c(-c2nc3cc(C(=O)N4CCC[C@@H](N)C4)ccn3c2C)cc2cc(F)ccc21 [Compound 39, (R)-(3-aminopiperidin-1-yl)(2-(1-ethyl-5-fluoro-1H-indol-2-yl)-3-methylimidazo[1,2-a]pyridin-7-yl)methanone]
